# Test results from patent US7989451B2, “Tricyclic 1,2,4-triazine oxides and compositions for therapeutic use in cancer treatments” (Auckland Uniservices Limited, priority 2005, dated 2011).
# Where two headings read alike, the source gives them in different places.
# Columns and labels:
# [1] = tested on: SiHa, human cervical carcinoma; experiment: Fractionated tumour excision assay, SiHa xenograft; assay type: in vivo, CD-1 nude mice; conditions: for log cell kill compared to radiation alone: i.p. at 100% of MTD twice daily for 4 days, 30 min before each of 8×2.5 Gy, excised 18 hr after treatment
# Procedure: (§1) FIG. 3 illustrates by way of a plot the activity of fractionated dose TPZ and compound 77 against hypoxic cells in three human tumour xenograft models: H460, non-small cell lung carcinoma; HT29, human colon carcinoma; SiHa, human cervical carcinoma. Drugs (1.0× fractionated MTD) were administered 30 min before each of 8×2.5 Gy doses of radiation.
# (§2) The activity of multiple doses of compound 77 and TPZ against hypoxic cells in three human tumour xenografts is illustrated in FIG. 3. Subcutaneous tumours (average of two largest diameters 8-10 mm) were grown by inoculating 10^7 cells into the midline of the back in CD-1 nude mice. Drugs were administered by i.p. injection at 100% of the MTD for twice daily (9 am, 3 pm) administration for 4 days, either alone or 30 min before each of 8×2.5 Gy local irradiation of the tumour. Tumours were excised 18 hr after treatment and plated to determine the number of clonogens/g tumour tissue. Antitumour activity is measured as logs of cell kill in addition to the cell kill observed for radiation alone.
# [2] = tested on: human colon carcinoma HT29; experiment: Proliferation assay (IC50) under aerobic and hypoxic conditions, HT29; assay type: cell-based; conditions: for IC50: Homo sapiens, 4 h drug exposure, sulforhodamine B; for HCR: hypoxic cytotoxicity ratio = IC50 aerobic/IC50 hypoxic
# In short: (§3)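 HT29 (1100) and SiHa (1500) cells in αMEM with 17 mM glucose and 100 μM 2′-dCyd, exposed 4 h at 37 °C to 3-fold dilutions under 20% O2 or anoxia (<0.001% O2). Regrowth 5 (oxic) or 6 (anoxic) days; IC50 by sulforhodamine B. HCR = IC50 aerobic/IC50 hypoxic.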
# [3] = tested on: HT29, human colon carcinoma; experiment: Fractionated tumour excision assay, HT29 xenograft; assay type: in vivo, CD-1 nude mice; conditions: for log cell kill compared to radiation alone: i.p. at 100% of MTD twice daily for 4 days, 30 min before each of 8×2.5 Gy, excised 18 hr after treatment
# Procedure: as §1, §2
# [4] = tested on: H460, non-small cell lung carcinoma; experiment: Fractionated tumour excision assay, H460 xenograft; assay type: in vivo, CD-1 nude mice; conditions: for log cell kill compared to radiation alone: i.p. at 100% of MTD twice daily for 4 days, 30 min before each of 8×2.5 Gy, excised 18 hr after treatment
# Procedure: as §1, §2
# [5] = tested on: human cervical carcinoma SiHa; experiment: Proliferation assay (IC50) under aerobic and hypoxic conditions, SiHa; assay type: cell-based; conditions: for IC50: Homo sapiens, 4 h drug exposure, sulforhodamine B; for HCR: hypoxic cytotoxicity ratio = IC50 aerobic/IC50 hypoxic
# In short: as §3
# [6] = tested on: hypoxic cells in HT29 tumours; experiment: HT29 excision assay, single dose in combination with radiation; assay type: in vivo, CD-1 nude mice
# Procedure: HT29 Excision assay. In vivo activity of single dose of compound 77 in combination with radiation. The activity of compound 77 against hypoxic cells in HT29 tumours is illustrated in FIG. 1. Subcutaneous HT29 tumours (average of two largest diameters 8-10 mm) were grown by inoculating 10^7 cells (obtained by enzymatic dissociation of multicellular spheroids) into CD-1 nude mice. Cmpd 77 was administered as a single i.p. dose (560 μmol/kg, which is 75% of the maximum tolerated dose) alone or 5 min after radiation (20 Gy). Tumours were excised 18 h after treatment and plated to determine the number of clonogens/g tumour tissue.
# [7] = HT-29, hypoxic (anaerobic chamber, <0.001% O2), then 6 days growth, read-out: IC50 (μM) hypoxic
# [8] = HT-29, oxic (20% O2), then 5 days growth, read-out: IC50 (μM) oxic
# [9] = fractionated drug plus 8×2.5 Gy radiation
# [10] = hypoxic (anaerobic chamber, <0.001% O2), then 6 days growth, read-out: IC50 (μM) hypoxic
# [11] = oxic (20% O2), then 5 days growth, read-out: IC50 (μM) oxic
Structure (SMILES),"log cell kill in addition to radiation alone, 77 plus radiation relative to TPZ plus radiation ([1]; SiHa tumours, p<0.05, Student's t-test)","killing relative to TPZ ([1]; SiHa, fractionated drug plus 8×2.5 Gy radiation)",log cell kill compared to radiation alone ([1]; SiHa),"IC50 [2, 7] [µM]","IC50 [2, 8] [µM]",HCR [2],"killing relative to TPZ [3, 9]",log cell kill compared to radiation alone [3],"killing relative to TPZ [4, 9]",log cell kill compared to radiation alone [4],"IC50 [5, 10] [µM]","IC50 [5, 11] [µM]",HCR [5],"Hypoxic cytotoxicity: difference in clonogens/g tumour tissue between radiation-only and radiation+drug groups ([6]; single i.p. dose 560 μmol/kg (75% of MTD) 5 min after radiation (20 Gy), tumours excised 18 h after treatment, ANOVA and Dunnett's test)",Selectivity for hypoxic cells: activity with radiation versus as a single agent ([6]; single i.p. dose 560 μmol/kg alone or 5 min after radiation (20 Gy)),melting point [°C]
"[O-][n+]1nc(CCCN2CCOCC2)[n+]([O-])c2cc3c(cc21)CCC3 [Compound 77, 3-[3-(4-Morpholinyl)propyl]-7,8-dihydro-6H-indeno[5,6-e][1,2,4]triazine 1,4-Dioxide]",significantly greater,greater killing than TPZ,significantly (P<0.05) greater log cell kill,2.8 ± 0.6,349 ± 62,127 ± 12,greater killing than TPZ,significantly (P<0.05) greater log cell kill,greater killing than TPZ,significantly (P<0.05) greater log cell kill,1.4 ± 0.3,302 ± 48,223 ± 14,statistically significant (p<0.05),greater activity of 77 with radiation than as a single agent,–
"[O-][n+]1nc(CCCN2CCOCC2)[n+]([O-])c2cc3c(cc21)CCO3 [Compound 216, 3-[3-(4-Morpholinyl)propyl]-7,8-dihydrofuro[2,3-g][1,2,4]benzotriazine 1,4-Dioxide]",–,–,–,8.9 ± 0.4,218 ± 54,25 ± 6,–,–,–,–,5.05 ± 0.01,216,43,–,–,150 to 154
"CN(C)CCNc1n[n+]([O-])c2cc3c(cc2[n+]1[O-])OCO3 [Compound 224, N^1-(1,4-Dioxido[1,3]dioxolo[4,5-g][1,2,4]benzotriazin-3-yl)-N^2,N^2-dimethyl-1,2-ethanediamine]",–,–,–,13 ± 7,471 ± 443,26 ± 21,–,–,–,–,4.7 ± 3.3,304 ± 254,53 ± 17,–,–,175 to 179
"CN(C)CCNc1n[n+]([O-])c2cc3c(cc2[n+]1[O-])CCCO3 [Compound 242, N^1-(1,4-Dioxido-7,8-dihydro-6H-chromeno[6,7-e][1,2,4]triazin-3-yl)-N^2,N^2-dimethyl-1,2-ethanediamine]",–,–,–,1.5,38 ± 10,19,–,–,–,–,0.31,25 ± 6,60,–,–,152 to 154
"CCNc1n[n+]([O-])c2cc3c(cc2[n+]1[O-])CN(C)CC3 [Compound 259, N-Ethyl-7-methyl-6,7,8,9-tetrahydro[1,2,4]triazino[6,5-g]isoquinolin-3-amine 1,4-Dioxide]",–,–,–,2.6 ± 0.03,154 ± 19,59 ± 7,–,–,–,–,1.1 ± 0.5,111 ± 51,100 ± 2,–,–,120 to 124
"CCc1n[n+]([O-])c2cc3c(cc2[n+]1[O-])CN(C)CC3 [Compound 261, 3-Ethyl-7-methyl-6,7,8,9-tetrahydro[1,2,4]triazino[6,5-g]isoquinoline 1,4-Dioxide]",–,–,–,13 ± 1,24 ± 2,2 ± 0.2,–,–,–,–,3.1 ± 0.1,18 ± 1,6 ± 0.2,–,–,124 to 128
"Nc1n[n+]([O-])c2ccccc2[n+]1[O-] [TPZ, tirapazamine, reference compound]",–,–,significantly (P<0.05) greater log cell kill,–,–,–,–,significantly (P<0.05) greater log cell kill,–,significantly (P<0.05) greater log cell kill,–,–,–,–,–,–
